# Reference: ChEMBL document CHEMBL3421630, “Myxochelins target human 5-lipoxygenase” (J Nat Prod, 2015)
# pIC50: −log10 of the molar value. The source made the active and inactive calls. The calls are words filed in the database; no cut-off is given here.
# Assays:
# [1] = biological target: T1, Polyunsaturated fatty acid 5-lipoxygenase (Homo sapiens) (UniProt P09917); settings: 3 uM
# T1 sequence (whole entry): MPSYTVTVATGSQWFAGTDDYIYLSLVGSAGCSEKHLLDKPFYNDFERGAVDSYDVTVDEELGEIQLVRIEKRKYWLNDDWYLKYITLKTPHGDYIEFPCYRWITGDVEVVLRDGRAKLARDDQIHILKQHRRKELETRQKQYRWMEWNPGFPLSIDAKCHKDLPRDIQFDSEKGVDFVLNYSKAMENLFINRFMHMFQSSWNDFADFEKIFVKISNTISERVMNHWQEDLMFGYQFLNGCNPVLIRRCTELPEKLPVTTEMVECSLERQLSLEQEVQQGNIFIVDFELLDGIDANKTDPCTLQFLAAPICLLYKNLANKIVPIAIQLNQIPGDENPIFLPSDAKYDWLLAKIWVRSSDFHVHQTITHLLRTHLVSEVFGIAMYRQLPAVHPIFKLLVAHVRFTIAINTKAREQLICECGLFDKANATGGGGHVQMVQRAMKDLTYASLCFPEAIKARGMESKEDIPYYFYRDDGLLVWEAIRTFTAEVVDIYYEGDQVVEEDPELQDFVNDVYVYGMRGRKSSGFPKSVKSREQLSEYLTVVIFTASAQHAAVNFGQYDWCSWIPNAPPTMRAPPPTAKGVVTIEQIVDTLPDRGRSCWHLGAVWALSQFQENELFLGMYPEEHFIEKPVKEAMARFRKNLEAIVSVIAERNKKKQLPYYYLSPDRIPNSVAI
# Description: Inhibition of human recombinant 5-LOX expressed in Escherichia coli BL21 DE3 assessed as reduction in 5-LO product formation at 3 uM pre-incubated for 10 mins by RP-HPLC method
# HeLa = test: Inhibition of cell proliferation of human HeLa cells after 72 hrs by methylene blue dye based assay; type: functional
# K562 = test: Inhibition of cell proliferation of human K562 cells after 72 hrs by cell-titer-blue assay; type: functional, cell-based; settings: K562, 72 h
# [2] = biological target: T1, Polyunsaturated fatty acid 5-lipoxygenase (Homo sapiens); test: (§1) Inhibition of human recombinant 5-LOX expressed in Escherichia coli BL21 DE3 assessed as reduction in 5-LO product formation pre-incubated for 10 mins by RP-HPLC method
# [3] = biological target: T2, Polyunsaturated fatty acid 5-lipoxygenase (Homo sapiens, UniProt P09917); test: as §1
# T2 sequence (P09917 whole entry): T1 sequence (whole entry)
# [4] = biological target: T3, Prostaglandin E synthase (Homo sapiens) (UniProt O14684); test: Inhibition of m-PGES1 in IL-1beta-induced human A549 cell microsomes assessed as reduction in […]PGE2 production up to 100 uM pre-incubated for 15 mins before PGH2 addition by UV detection based reverse-phase high-performance liquid chromatography
# T3 sequence (whole entry): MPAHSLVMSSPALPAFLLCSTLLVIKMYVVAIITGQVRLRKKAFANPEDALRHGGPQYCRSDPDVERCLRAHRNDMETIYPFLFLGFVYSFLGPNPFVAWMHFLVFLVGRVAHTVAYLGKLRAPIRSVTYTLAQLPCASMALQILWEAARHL
# [5] = biological target: T1, Polyunsaturated fatty acid 5-lipoxygenase (Homo sapiens); test: Inhibition of human recombinant 5-LOX expressed in Escherichia coli BL21 DE3 assessed as reduction in 5-LO product formation at 10 uM pre-incubated for 10 mins by RP-HPLC method
# [6] = Siderophore activity by chrome azurol S assay
inhibition [1],pIC50 (HeLa),pIC50 (K562),inhibition [2],pIC50 [3],inhibition [4],inhibition [5],Structure (SMILES),Activity [6]
Active,–,–,–,–,–,–,CC(c1cc2ccccc2s1)N(O)C(N)=O (stereo not drawn),–
–,3.52,5.41,Dose-dependent effect,5.72,inactive,Active,O=C(NCCCC[C@@H](CO)NC(=O)c1cccc(O)c1O)c1cccc(O)c1O,Active
